Test results as given in paper PMC6273913, “New α-Methylene-γ-Butyrolactone Derivatives as Potential Fungicidal Agents: Design, Synthesis and Antifungal Activities” (Molecules, 2016).
Where two headings read alike, the source gives them in different places.

Columns and labels:
C. lagenarium = experiment: Spore germination assay, fungicidal activity against C. lagenarium; format: cell-based, Colletotrichum lagenarium; conditions: Colletotrichum orbiculare
Description: (§1) The fungal pathogens C. lagenarium and B. cinerea was provided by the Agricultural Culture Collection of China (Yangling, Shaanxi, China). C. lagenarium was cultured for 2 weeks at 25 ± 1 °C on potato dextrose agar (PDA) while B. cinerea was cultured at 20 °C on the same medium after being retrieved from the storage tube. Plates were flooded with sterile distilled water, and then conidia were scraped with a glass rod. Mycelial debris was removed by filtration. The spores were harvested and suspended in sterile distilled water containing 0.1% (v/v) Tween 20. The concentration of the spore suspension was adjusted to 1.0 × 10^6 spores/mL with sterilized distilled water following.
(§2) The tested samples (10.0 mg) dissolved in acetone (0.1 mL) were diluted with sterile distilled water to prepare 10.0 mL stock solution, which was further diluted to prepare test solutions in which the final concentration of acetone was <1% (v/v). A series of concentrations of tested samples and one control (1% acetone with sterile distilled water) were separately tested for spore germination of C. lagenarium or B. cinerea. The samples were inoculated with spore suspension of C. lagenarium or B. cinerea containing 1.0 × 10^6 spores/mL. Aliquots of 10 μL of prepared spore suspension were placed on separate glass slides in triplicate. Slides containing the spores were incubated in a moisture chamber at 25 °C for 6~8 h. Each slide was then observed under the microscope for spore germination. Spores were considered to have germinated if the length of the germ tube was at least half the length of the spore. Afterward, spore germination was stopped by applying a drop of lactophenol-cotton blue to the inoculation sites on plates. The numbers of generated spores were counted under a microscope (Olympus BX61, Tokyo, Japan), and the percentage of germinated spores was calculated. Chlorothalonil was used as the positive control.

B. cinerea = experiment: Spore germination assay, fungicidal activity against B. cinerea; format: cell-based, Botrytis cinerea; conditions: Botrytis cinerea, in vitro, n = 3
Description: as §1, §2

HepG2 cell line = experiment: Cytotoxic activity against human tumor cells line (HepG2); format: cell-based
[1] = Table 1, from IC50 in μM, read-out: pIC50, C. lagenarium (converted)
[2] = Table 2, fungicidal activity against C. lagenarium used for QSAR, read-out: pIC50 (converted)
[3] = Table 4, experimental, C. lagenarium, read-out: Exp. pIC50 (converted)
[4] = Table 6, read-out: IC50 (μM) (against C. lagenarium)
[5] = in vitro, spore germination, n = 3, read-out: IC50, C. lagenarium

| melting point [°C] | SMILES | IC50 (C. lagenarium; [1]) [µM] | IC50 (C. lagenarium; [2]) [µM] | IC50 (C. lagenarium; [3]) [µM] | IC50 (C. lagenarium; [4]) [µM] | IC50 (C. lagenarium; [5]) [µM] | IC50 (B. cinerea) [µM] | IC50 (HepG2 cell line) [µM] |
| --- | --- | --- | --- | --- | --- | --- | --- | --- |
| 168.8 to 169.2 | C=C1CC(c2ccc(OC(=O)c3cccc(Cl)c3)cc2)OC1=O (stereo not drawn) [Compound 4b, 4-[4-(3-Chlorobenzoyloxy)phenyl]-2-methylenebutyrolactone] | 8.99 | 8.99 | 8.99 | 8.99 | 8.99 | 22.1 | 22.4 |
| 186.2 to 186.6 | C=C1CC(c2ccc(OC(=O)c3cccc(C)c3)cc2)OC1=O (stereo not drawn) [Compound 4k, 4-[4-(3-Methylbenzoyloxy)phenyl]-2-methylenebutyrolactone] | 178 | 178 | 178 | 178 | 178 | 193 | 28.5 |
| 184.5 to 185.2 | C=C1CC(c2ccc(OC(=O)c3ccc(OC)cc3)cc2)OC1=O (stereo not drawn) [Compound 4o, 4-[4-(4-Methoxylbenzoyloxy)phenyl]-2-methylenebutyrolactone] | 219 | 219 | 219 | 219 | 219 | 231 | 25 |
